Source: ChEMBL document CHEMBL4052776, “Discovery of 3-morpholino-imidazole[1,5-a]pyrazine BTK inhibitors for rheumatoid arthritis” (Bioorg Med Chem Lett, 2017)

What was measured:
[1] = target: T1, Tyrosine-protein kinase BTK (Homo sapiens, UniProt Q06187); test: Inhibition of recombinant full-length His6-tagged BTK (unknown origin) expressed in baculovirus infected Sf9 cells using biotinylated A5 peptide as substrate preincubated for 60 mins followed by substrate addition measured after 120 mins by LANCE TR-FRET assay
[2] = target: T1, Tyrosine-protein kinase BTK; test: Inhibition of BTK in human PBMC assessed as reduction in anti-IgM-induced MIP1beta
[3] = target: Tyrosine-protein kinase Blk (Homo sapiens, UniProt P51451); test: Inhibition of BLK (unknown origin)
[4] = target: T2, Cytoplasmic tyrosine-protein kinase BMX (Homo sapiens, UniProt P51813); test: Inhibition of BMX (unknown origin)
T2 sequence (P51813 whole entry): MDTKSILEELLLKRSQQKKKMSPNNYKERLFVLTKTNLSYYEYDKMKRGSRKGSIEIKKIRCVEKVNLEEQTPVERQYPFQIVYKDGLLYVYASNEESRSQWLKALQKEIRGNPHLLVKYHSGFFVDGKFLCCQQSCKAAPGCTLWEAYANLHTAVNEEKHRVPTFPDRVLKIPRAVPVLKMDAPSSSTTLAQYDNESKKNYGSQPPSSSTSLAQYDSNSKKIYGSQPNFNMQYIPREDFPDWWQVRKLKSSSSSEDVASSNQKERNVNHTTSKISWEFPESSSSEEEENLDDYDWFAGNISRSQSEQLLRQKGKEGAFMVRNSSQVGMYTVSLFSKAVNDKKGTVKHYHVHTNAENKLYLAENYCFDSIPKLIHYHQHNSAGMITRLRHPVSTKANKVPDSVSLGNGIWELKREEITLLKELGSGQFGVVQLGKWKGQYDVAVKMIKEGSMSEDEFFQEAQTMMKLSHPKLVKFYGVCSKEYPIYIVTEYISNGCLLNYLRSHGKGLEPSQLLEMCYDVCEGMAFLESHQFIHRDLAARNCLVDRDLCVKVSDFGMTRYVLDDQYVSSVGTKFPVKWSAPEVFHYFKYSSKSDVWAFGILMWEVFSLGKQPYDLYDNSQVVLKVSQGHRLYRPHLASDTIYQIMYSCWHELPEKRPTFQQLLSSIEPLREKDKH

[5] = target: Tyrosine-protein kinase CSK (Homo sapiens, UniProt P41240); test: Inhibition of CSK (unknown origin)
[6] = target: Receptor tyrosine-protein kinase erbB-4 (Homo sapiens, UniProt Q15303); test: Inhibition of ERBB4 (unknown origin)
[7] = target: Tyrosine-protein kinase Fgr (Homo sapiens, UniProt P09769); test: Inhibition of FGR (unknown origin)
[8] = target: Tyrosine-protein kinase FRK (Homo sapiens, UniProt P42685); test: Inhibition of FRK (unknown origin)
[9] = target: Tyrosine-protein kinase Fyn (Homo sapiens, UniProt P06241); test: Inhibition of FYN (unknown origin)
[10] = target: Tyrosine-protein kinase Lck (Homo sapiens, UniProt P06239); test: Inhibition of LCK (unknown origin)
[11] = target: Tyrosine-protein kinase Lyn (Homo sapiens, UniProt P07948); test: Inhibition of LYNB (unknown origin)
[12] = target: Protein-tyrosine kinase 6 (Homo sapiens, UniProt Q13882); test: Inhibition of PTK6 (unknown origin)
[13] = target: Proto-oncogene tyrosine-protein kinase Src (Homo sapiens, UniProt P12931); test: Inhibition of SRC (unknown origin)
[14] = target: Tyrosine-protein kinase Srms (Homo sapiens, UniProt Q9H3Y6); test: Inhibition of SRMS (unknown origin)
[15] = target: T3, Tyrosine-protein kinase Tec (Homo sapiens, UniProt P42680); test: Inhibition of TEC (unknown origin)
T3 sequence (P42680 whole entry): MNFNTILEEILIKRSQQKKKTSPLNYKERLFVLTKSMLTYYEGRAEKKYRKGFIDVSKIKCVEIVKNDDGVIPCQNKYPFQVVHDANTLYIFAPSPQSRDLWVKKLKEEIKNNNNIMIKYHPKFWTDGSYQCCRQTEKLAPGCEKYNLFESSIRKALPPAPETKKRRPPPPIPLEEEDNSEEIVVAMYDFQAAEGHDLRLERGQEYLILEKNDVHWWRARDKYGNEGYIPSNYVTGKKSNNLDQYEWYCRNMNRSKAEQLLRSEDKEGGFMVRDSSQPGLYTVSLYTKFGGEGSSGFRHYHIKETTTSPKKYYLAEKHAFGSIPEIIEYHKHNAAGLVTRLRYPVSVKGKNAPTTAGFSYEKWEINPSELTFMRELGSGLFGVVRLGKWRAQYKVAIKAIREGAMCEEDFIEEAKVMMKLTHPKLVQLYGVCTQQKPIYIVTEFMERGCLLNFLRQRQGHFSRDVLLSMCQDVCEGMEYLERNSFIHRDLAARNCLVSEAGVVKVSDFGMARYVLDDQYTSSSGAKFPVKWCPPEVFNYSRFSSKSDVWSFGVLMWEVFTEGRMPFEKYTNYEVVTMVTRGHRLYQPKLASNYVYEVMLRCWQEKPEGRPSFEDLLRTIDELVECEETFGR

[16] = target: T4, Tyrosine-protein kinase TXK (Homo sapiens, UniProt P42681); test: Inhibition of TXK (unknown origin)
T4 sequence (P42681 whole entry): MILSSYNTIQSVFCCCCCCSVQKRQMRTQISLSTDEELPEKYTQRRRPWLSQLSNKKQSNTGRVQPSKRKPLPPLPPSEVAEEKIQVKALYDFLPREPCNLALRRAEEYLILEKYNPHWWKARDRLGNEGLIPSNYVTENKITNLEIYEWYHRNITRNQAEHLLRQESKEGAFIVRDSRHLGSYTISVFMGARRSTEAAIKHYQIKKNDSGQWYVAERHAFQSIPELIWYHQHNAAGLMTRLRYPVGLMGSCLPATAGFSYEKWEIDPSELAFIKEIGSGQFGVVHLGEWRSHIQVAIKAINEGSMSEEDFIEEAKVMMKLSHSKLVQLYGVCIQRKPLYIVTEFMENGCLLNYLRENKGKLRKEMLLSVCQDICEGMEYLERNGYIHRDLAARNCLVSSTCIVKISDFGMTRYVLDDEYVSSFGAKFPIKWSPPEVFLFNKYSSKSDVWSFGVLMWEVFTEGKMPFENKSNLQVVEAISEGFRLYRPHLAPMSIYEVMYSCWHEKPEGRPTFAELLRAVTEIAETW

[17] = target: Tyrosine-protein kinase Yes (Homo sapiens, UniProt P07947); test: Inhibition of YES1 (unknown origin)
[18] = Total clearance in rat plasma at 10 mg/kg; format: ADME, organism-based
[19] = Half life in rat at 10 mg/kg; format: ADME, organism-based; settings: in vivo
[20] = Oral bioavailability in rat at 10 mg/kg; format: ADME, organism-based; settings: in vivo
[21] = Total clearance in dog plasma at 2 mg/kg administered as cassette dose; format: ADME, organism-based, Canis lupus familiaris
[22] = Half life in dog at 2 mg/kg administered as cassette dose; format: ADME, organism-based, Canis lupus familiaris; settings: in vivo
[23] = target: Voltage-gated inwardly rectifying potassium channel KCNH2 (Homo sapiens, UniProt Q12809); test: Inhibition of human ERG by [35S]-MK499 displacement or iKr channel assay
Homo sapiens [24] = species: Homo sapiens; test: Selectivity ratio of IC50 for BLK (unknown origin) to IC50 for BTK (unknown origin)
Homo sapiens [25] = species: Homo sapiens; test: Selectivity ratio of IC50 for BMX (unknown origin) to IC50 for BTK (unknown origin)
Homo sapiens [26] = species: Homo sapiens; test: Selectivity ratio of IC50 for CSK (unknown origin) to IC50 for BTK (unknown origin)
Homo sapiens [27] = species: Homo sapiens; test: Selectivity ratio of IC50 for ERBB4 (unknown origin) to IC50 for BTK (unknown origin)
Homo sapiens [28] = species: Homo sapiens; test: Selectivity ratio of IC50 for FGR (unknown origin) to IC50 for BTK (unknown origin)
Homo sapiens [29] = species: Homo sapiens; test: Selectivity ratio of IC50 for FRK (unknown origin) to IC50 for BTK (unknown origin)
Homo sapiens [30] = species: Homo sapiens; test: Selectivity ratio of IC50 for FYN (unknown origin) to IC50 for BTK (unknown origin)
Homo sapiens [31] = species: Homo sapiens; test: Selectivity ratio of IC50 for LCK (unknown origin) to IC50 for BTK (unknown origin)
Homo sapiens [32] = species: Homo sapiens; test: Selectivity ratio of IC50 for LYNB (unknown origin) to IC50 for BTK (unknown origin)
Homo sapiens [33] = species: Homo sapiens; test: Selectivity ratio of IC50 for PTK6 (unknown origin) to IC50 for BTK (unknown origin)
Homo sapiens [34] = species: Homo sapiens; test: Selectivity ratio of IC50 for SRC (unknown origin) to IC50 for BTK (unknown origin)
Homo sapiens [35] = species: Homo sapiens; test: Selectivity ratio of IC50 for SRMS (unknown origin) to IC50 for BTK (unknown origin)
Homo sapiens [36] = species: Homo sapiens; test: Selectivity ratio of IC50 for TEC (unknown origin) to IC50 for BTK (unknown origin)
Homo sapiens [37] = species: Homo sapiens; test: Selectivity ratio of IC50 for TXK (unknown origin) to IC50 for BTK (unknown origin)
Homo sapiens [38] = species: Homo sapiens; test: Selectivity ratio of IC50 for YES1 (unknown origin) to IC50 for BTK (unknown origin)

Sequence of Tyrosine-protein kinase Lck (P06239 whole entry): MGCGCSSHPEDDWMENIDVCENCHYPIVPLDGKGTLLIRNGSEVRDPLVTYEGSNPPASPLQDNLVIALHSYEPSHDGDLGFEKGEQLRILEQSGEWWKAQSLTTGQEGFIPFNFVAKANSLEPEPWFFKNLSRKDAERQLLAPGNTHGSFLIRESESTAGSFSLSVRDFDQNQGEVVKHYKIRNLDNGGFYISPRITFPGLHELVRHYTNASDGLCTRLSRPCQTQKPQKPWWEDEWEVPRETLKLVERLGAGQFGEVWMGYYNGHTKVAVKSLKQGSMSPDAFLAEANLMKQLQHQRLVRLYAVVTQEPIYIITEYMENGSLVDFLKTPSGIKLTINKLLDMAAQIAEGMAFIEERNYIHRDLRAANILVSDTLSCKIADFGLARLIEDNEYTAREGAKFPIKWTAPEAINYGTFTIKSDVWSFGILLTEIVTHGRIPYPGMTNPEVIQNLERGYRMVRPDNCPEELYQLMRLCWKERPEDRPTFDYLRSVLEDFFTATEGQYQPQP
Sequence of Protein-tyrosine kinase 6 (Q13882 whole entry): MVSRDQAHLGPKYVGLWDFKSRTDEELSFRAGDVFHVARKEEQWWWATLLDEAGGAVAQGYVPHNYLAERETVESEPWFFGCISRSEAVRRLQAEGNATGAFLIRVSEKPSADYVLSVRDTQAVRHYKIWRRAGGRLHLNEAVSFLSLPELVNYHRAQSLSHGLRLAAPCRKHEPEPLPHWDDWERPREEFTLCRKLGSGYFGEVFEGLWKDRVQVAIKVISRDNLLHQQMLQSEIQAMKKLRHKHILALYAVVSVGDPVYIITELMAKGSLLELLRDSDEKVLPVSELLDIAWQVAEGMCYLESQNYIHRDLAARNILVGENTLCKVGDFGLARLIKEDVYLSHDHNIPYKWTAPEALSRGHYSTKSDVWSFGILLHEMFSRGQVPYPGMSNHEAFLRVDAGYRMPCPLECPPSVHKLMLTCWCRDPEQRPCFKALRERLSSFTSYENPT
T1 sequence (Q06187 whole entry): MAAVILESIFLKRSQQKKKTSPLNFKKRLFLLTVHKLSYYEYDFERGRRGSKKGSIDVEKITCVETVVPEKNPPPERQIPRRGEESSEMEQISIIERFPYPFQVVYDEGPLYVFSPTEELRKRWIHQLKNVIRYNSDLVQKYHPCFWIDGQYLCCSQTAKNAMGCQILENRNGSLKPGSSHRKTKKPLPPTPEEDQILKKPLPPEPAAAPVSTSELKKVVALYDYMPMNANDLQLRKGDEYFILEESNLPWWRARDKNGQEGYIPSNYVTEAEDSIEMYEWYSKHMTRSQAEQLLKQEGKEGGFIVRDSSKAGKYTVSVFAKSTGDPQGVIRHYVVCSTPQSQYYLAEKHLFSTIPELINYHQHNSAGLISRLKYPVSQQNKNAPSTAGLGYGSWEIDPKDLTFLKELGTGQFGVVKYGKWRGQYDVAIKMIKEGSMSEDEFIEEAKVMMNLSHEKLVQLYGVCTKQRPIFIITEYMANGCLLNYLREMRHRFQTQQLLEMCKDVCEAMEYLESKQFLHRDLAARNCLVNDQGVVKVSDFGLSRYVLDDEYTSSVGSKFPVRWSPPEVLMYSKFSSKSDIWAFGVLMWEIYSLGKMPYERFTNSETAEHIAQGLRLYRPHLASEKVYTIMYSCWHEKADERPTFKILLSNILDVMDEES
Sequence of Tyrosine-protein kinase Lyn (P07948 whole entry): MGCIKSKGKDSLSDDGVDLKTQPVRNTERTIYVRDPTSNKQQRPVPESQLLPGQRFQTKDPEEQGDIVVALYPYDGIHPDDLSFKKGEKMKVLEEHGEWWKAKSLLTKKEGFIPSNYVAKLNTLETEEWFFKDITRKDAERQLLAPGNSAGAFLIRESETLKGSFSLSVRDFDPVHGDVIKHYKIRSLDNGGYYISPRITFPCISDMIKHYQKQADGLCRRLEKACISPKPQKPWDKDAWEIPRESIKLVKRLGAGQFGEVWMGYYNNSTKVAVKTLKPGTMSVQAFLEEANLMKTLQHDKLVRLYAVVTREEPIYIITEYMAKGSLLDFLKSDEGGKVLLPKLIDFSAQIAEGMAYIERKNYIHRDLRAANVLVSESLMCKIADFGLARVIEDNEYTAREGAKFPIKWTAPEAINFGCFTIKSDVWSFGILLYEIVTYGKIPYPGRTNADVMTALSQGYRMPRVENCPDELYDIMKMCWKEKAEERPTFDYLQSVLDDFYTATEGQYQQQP
Sequence of Tyrosine-protein kinase Yes (P07947 whole entry): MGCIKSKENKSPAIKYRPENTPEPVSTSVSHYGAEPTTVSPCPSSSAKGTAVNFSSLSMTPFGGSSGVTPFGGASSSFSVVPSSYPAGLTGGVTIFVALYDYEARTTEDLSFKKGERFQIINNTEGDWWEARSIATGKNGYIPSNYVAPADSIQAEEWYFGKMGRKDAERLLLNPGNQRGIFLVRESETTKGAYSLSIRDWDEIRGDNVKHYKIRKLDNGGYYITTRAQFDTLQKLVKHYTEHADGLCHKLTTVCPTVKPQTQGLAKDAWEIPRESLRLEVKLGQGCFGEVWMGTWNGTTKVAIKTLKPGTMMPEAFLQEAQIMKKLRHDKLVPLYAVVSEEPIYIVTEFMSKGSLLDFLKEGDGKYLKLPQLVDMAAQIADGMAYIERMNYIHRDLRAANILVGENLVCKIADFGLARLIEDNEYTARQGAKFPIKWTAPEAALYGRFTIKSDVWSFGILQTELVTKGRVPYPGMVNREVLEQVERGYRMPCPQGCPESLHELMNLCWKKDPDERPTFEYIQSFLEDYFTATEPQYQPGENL
Sequence of Tyrosine-protein kinase Fyn (P06241 whole entry): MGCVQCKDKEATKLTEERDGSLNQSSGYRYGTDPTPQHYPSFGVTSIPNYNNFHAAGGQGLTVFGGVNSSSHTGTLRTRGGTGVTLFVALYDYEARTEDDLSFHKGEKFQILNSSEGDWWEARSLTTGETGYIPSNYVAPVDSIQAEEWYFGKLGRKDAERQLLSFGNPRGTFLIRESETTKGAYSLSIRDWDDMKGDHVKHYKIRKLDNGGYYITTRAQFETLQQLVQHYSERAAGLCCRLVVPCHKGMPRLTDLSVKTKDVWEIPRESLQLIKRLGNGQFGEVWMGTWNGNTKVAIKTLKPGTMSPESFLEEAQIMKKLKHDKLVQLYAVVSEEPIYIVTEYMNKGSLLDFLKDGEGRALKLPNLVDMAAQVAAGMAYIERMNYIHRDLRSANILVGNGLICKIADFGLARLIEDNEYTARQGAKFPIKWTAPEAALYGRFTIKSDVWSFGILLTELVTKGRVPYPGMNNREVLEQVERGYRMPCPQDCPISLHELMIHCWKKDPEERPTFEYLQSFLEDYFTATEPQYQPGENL
Sequence of Tyrosine-protein kinase Srms (Q9H3Y6 whole entry): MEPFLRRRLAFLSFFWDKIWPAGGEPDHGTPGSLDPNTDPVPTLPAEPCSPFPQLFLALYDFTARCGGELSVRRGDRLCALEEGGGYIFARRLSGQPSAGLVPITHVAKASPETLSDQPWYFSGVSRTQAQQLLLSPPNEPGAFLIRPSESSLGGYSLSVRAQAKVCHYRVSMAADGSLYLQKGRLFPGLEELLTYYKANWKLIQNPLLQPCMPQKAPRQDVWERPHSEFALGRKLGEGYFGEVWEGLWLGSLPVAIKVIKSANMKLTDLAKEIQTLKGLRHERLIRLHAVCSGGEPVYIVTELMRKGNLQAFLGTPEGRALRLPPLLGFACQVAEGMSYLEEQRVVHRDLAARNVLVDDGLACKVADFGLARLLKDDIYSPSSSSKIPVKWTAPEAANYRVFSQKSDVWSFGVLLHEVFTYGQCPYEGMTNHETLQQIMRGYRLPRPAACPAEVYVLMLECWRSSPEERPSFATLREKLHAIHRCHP
Sequence of Tyrosine-protein kinase FRK (P42685 whole entry): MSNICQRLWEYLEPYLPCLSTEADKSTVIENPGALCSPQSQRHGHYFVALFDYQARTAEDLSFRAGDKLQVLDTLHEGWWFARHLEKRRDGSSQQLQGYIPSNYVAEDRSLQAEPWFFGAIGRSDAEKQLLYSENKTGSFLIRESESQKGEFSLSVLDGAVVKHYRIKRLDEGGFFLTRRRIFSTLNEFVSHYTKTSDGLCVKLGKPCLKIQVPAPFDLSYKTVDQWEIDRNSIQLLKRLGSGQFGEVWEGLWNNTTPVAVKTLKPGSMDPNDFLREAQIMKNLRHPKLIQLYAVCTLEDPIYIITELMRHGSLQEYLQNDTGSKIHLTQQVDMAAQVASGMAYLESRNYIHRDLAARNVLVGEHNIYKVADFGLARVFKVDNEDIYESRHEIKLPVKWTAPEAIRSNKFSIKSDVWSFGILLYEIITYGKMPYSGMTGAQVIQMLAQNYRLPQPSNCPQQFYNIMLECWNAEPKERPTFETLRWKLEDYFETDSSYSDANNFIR
Sequence of Tyrosine-protein kinase Fgr (P09769 whole entry): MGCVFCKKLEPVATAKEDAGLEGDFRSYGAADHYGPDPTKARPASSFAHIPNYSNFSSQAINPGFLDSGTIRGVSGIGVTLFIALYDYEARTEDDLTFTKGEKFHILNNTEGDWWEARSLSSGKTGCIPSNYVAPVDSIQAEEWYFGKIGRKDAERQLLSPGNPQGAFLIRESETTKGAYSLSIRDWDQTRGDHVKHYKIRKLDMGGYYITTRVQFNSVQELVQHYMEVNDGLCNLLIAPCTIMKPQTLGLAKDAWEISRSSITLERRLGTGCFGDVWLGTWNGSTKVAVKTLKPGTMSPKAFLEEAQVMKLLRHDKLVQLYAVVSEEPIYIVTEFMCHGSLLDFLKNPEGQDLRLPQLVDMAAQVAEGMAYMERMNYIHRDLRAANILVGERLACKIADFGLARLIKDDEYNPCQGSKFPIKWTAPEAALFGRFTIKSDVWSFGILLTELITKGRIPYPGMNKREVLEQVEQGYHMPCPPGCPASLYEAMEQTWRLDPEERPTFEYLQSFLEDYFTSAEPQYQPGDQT

| IC50 [1] | IC50 [2] | IC50 [3] | IC50 [4] | IC50 [5] | IC50 [6] | IC50 [7] | IC50 [8] | IC50 [9] | IC50 [10] | IC50 [11] | IC50 [12] | IC50 [13] | IC50 [14] | IC50 [15] | IC50 [16] | IC50 [17] | SMILES | other results |
| --- | --- | --- | --- | --- | --- | --- | --- | --- | --- | --- | --- | --- | --- | --- | --- | --- | --- | --- |
| 0.59 to 0.6 nM | 13 nM | 50 nM | 200 nM | 665 nM | 76 nM | 39 nM | 132 nM | 248 nM | 21 nM | 399 nM | 113 nM | 112 nM | 65 nM | 191 nM | 282 nM | 60 nM | Nc1nccn2c([C@H]3CN(C4CCOCC4)CCO3)nc(-c3ccc(C(=O)Nc4cc(C(F)(F)F)ccn4)cc3F)c12 | clearance [18]: 23 mL/min/kg; half-life [19]: 1.1 h; bioavailability [20]: 75%; clearance [21]: 5.9 mL/min/kg; half-life [22]: 3.1 h |
| 0.25 to 0.3 nM | 5 nM | 53 nM | 83 nM | 1150 nM | 230 nM | 203 nM | 472 nM | 894 nM | 74 nM | 646 nM | 350 nM | 265 nM | 84 nM | 378 nM | 132 nM | 189 nM | CC(C)C(=O)N1CCC[C@@H](c2nc(-c3ccc(C(=O)Nc4cc(C(F)(F)F)ccn4)cc3F)c3c(N)nccn23)C1 | – |
| 0.8 to 0.83 nM | 65 nM | 29 nM | 127 nM | 455 nM | 59 nM | 22 nM | 85 nM | 105 nM | 7 nM | 115 nM | 48 nM | 77 nM | 50 nM | 170 nM | 231 nM | 32 nM | Nc1nccn2c([C@@H]3CCCN(C4CCOCC4)C3)nc(-c3ccc(C(=O)Nc4cc(C(F)(F)F)ccn4)cc3F)c12 | IC50 [23]: 100 nM; Ratio IC50 (Homo sapiens [24]): 35; Ratio IC50 (Homo sapiens [25]): 153; Ratio IC50 (Homo sapiens [26]): 548; Ratio IC50 (Homo sapiens [27]): 71; Ratio IC50 (Homo sapiens [28]): 26; Ratio IC50 (Homo sapiens [29]): 102; Ratio IC50 (Homo sapiens [30]): 127; Ratio IC50 (Homo sapiens [31]): 9; Ratio IC50 (Homo sapiens [32]): 138; Ratio IC50 (Homo sapiens [33]): 58; Ratio IC50 (Homo sapiens [34]): 93; Ratio IC50 (Homo sapiens [35]): 60; Ratio IC50 (Homo sapiens [36]): 205; Ratio IC50 (Homo sapiens [37]): 278; Ratio IC50 (Homo sapiens [38]): 38 |
